Where a name gives a salt, the structure may show the parent alone.
Key:
human C1 = human C1 (Homo sapiens, UniProt P09871); assay: Test Code 026 (C1 inhibitor): activated human C1 destroys fluid phase human C2 in presence of C4; type: biochemical; details: activity in wells, twofold serial dilution; higher well number indicates higher activity
Description: (§1) An active inhibitor protects C2 from C1 and C4; (ii) Test Code 035 (C3-C9 inhibitor)--This test determines the ability of the late components of human complement (C3-C9) to lyse EAC 142 in the presence of appropriate dilutions of the test compound. An active inhibitor protects EAC 142 from lysis by human C3-C9; (iii) Test Code 036 (C-Shunt inhibitor)--In this test human erythrocytes rendered fragile are lysed in autologous serum via the shunt pathway activated by cobra venom factor in the presence of appropriate dilutions of the test compound. Inhibition of the shunt pathway results in failure of lysis; (iv) Forssman Vasculitis Test--Here, the well known complement dependent lesion, Forssman vasculitis, is produced in guinea pigs by intradermal injection of rabbit anti-Forssman antiserum. The lesion is measured in terms of diameter, edema and hemorrhage and the extent to which a combined index of these is inhibited by prior intraperitoneal injection of the test compound at 200 mg/kg is then reported, unless otherwise stated; (v) Forssman Shock Test--Lethal shock is produced in guinea pigs by an i.v. injection of anti-Forssman antiserum and the harmonic mean death time of treated guinea pigs is compared with that of the simultaneous controls; (vi) Complement Level Reduction Test--In this test, the above dosed guinea pigs, or others are bled for serum and the complmenet level is determined in undiluted serum by the capillary tube method of U.S. Pat. No. 3,876,376 and compared to undosed control guinea pigs; (vii) Cap 50 Test--Here, appropriate amounts of the test compound are added to a pool of guinea pig serum in vitro, after which the undiluted serum capillary tube assay referred to above is run. The concentration of compound inhibiting 50% is reported.
(§2) **Activity in wells, a serial dilution assay; higher well number indicate
(§3) higher activity. The serial dilutions are twofold-

whole complement = assay: In vivo activity (Guinea Pig): serum whole complement by capillary tube assay after dosing; details: Intraperitoneal, 200 mg/kg
human complement (C3-C9) = assay: Test Code 035 (C3-C9 inhibitor): lysis of EAC 142 by late components of human complement; type: biochemical; details: activity in wells, twofold serial dilution; higher well number indicates higher activity
Description: as §1, §2, §3

shunt pathway = assay: Test Code 036 (C-Shunt inhibitor): lysis of human erythrocytes in autologous serum via shunt pathway activated by cobra venom factor; type: biochemical; details: activity in wells, twofold serial dilution; higher well number indicates higher activity
Description: as §1, §2, §3

Chain of human C1 (P09871 16-688): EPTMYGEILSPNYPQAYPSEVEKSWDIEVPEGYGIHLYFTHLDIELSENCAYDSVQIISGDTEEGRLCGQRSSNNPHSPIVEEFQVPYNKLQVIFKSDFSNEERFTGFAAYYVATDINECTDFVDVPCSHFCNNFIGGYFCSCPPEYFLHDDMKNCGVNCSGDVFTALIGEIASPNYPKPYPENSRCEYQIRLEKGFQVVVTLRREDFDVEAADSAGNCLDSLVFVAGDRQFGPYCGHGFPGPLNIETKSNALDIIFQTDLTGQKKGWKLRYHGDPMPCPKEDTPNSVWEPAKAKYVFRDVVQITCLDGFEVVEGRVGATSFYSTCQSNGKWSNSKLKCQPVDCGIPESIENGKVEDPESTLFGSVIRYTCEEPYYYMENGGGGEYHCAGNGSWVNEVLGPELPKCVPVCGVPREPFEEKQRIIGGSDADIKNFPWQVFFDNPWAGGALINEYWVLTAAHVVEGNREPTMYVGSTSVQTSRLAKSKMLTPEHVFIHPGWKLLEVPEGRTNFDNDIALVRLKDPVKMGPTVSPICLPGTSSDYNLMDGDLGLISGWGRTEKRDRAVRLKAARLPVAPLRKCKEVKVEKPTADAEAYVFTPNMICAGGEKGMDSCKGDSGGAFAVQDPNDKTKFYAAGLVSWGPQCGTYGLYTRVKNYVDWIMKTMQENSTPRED
Chain of human C1 (P00736 18-705 partner): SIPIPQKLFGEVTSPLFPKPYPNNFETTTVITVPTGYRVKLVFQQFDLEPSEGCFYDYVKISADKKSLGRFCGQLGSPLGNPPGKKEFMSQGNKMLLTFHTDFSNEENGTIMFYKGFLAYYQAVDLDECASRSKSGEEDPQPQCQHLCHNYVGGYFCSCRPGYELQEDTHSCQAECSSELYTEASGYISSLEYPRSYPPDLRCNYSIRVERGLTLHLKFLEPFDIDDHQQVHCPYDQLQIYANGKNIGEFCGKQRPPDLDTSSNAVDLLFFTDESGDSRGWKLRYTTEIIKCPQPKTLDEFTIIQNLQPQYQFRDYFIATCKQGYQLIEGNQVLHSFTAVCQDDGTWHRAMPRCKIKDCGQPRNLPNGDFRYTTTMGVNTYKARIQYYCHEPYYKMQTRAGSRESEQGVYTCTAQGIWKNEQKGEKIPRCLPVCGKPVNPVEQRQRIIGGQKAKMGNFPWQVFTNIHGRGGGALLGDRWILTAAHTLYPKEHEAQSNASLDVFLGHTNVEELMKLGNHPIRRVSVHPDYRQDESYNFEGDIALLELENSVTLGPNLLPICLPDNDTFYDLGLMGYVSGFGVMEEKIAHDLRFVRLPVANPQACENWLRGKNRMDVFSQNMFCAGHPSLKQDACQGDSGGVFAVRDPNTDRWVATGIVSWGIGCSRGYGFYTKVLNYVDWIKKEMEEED
Chain of human C1 (P02745 23-245 partner): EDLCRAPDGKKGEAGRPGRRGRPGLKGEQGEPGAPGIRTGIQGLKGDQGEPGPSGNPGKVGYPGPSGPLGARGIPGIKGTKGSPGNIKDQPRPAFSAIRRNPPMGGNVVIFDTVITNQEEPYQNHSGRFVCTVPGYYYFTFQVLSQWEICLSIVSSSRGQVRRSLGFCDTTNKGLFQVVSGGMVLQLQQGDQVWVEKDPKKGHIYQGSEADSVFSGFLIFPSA
Chain of human C1 (P02746 28-253 partner): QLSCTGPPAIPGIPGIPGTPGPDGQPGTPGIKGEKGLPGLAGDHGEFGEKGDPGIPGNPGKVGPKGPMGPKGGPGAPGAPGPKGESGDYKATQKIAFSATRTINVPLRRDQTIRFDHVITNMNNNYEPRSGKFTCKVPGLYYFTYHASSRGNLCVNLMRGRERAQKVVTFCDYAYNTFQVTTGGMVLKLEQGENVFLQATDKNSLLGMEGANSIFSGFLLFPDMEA
Chain of human C1 (P02747 29-245 partner): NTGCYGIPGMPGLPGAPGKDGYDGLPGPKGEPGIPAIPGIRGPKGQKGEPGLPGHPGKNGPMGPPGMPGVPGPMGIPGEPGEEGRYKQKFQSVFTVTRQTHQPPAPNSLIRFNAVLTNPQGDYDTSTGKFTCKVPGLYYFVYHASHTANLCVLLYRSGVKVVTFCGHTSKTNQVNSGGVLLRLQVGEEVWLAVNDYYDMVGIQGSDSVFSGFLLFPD

Compound	C1 026 Wells (human C1)	In vivo Activity (Guinea Pig) % Inhibition (whole complement; 30 min) [%]	In vivo Activity (Guinea Pig) % Inhibition (whole complement; 60 min) [%]	In vivo Activity (Guinea Pig) % Inhibition (whole complement; 120 min) [%]	C-Late 035 Wells (human complement (C3-C9))	Shunt Inhibition 036 Wells (shunt pathway)
O=S(=O)(O)OC[C@H]1O[C@H](OC[C@H]2O[C@H](OS(=O)(=O)O)[C@H](OS(=O)(=O)O)[C@@H](OS(=O)(=O)O)[C@@H]2OS(=O)(=O)O)[C@H](OS(=O)(=O)O)[C@@H](OS(=O)(=O)O)[C@H]1OS(=O)(=O)O	+8 Wells	–	–	–	–	–
O=S(=O)(O)OC[C@H]1O[C@@H](OC[C@H]2O[C@H](OC[C@H]3O[C@H](OS(=O)(=O)O)[C@H](OS(=O)(=O)O)[C@@H](OS(=O)(=O)O)[C@@H]3OS(=O)(=O)O)[C@H](OS(=O)(=O)O)[C@@H](OS(=O)(=O)O)[C@H]2OS(=O)(=O)O)[C@H](OS(=O)(=O)O)[C@@H](OS(=O)(=O)O)[C@H]1OS(=O)(=O)O [drawing 6, O-β-D-galactopyranosyl(1→6)-O-α-D-galactopyranosyl(1→6)-α-D-glucopyranose [gal 1β,6 gal 1α,6 glc] undecakis (H-sulfate), undecasalt with trimethylamine]	+9 Wells	–	–	–	–	–
O=S(=O)(O)OC[C@H]1O[C@@H](OC[C@H]2O[C@H](OC[C@H]3O[C@H](OS(=O)(=O)O)[C@H](OS(=O)(=O)O)[C@@H](OS(=O)(=O)O)[C@@H]3OS(=O)(=O)O)[C@H](OS(=O)(=O)O)[C@@H](OS(=O)(=O)O)[C@H]2OS(=O)(=O)O)[C@H](OS(=O)(=O)O)[C@@H](OS(=O)(=O)O)[C@H]1OS(=O)(=O)O [drawing 7, O-β-D-galactopyranosyl(1→6)-O-α-D-galactopyranosyl(1→6)-α-D-glucopyranose [gal 1β,6 gal 1α,6 glc] undecakis (H-sulfate), undecasodium salt]	+9 Wells	-30	-17	-56	–	–
O=S(=O)(O)OC[C@H]1O[C@H](OC[C@H]2O[C@@H](OC[C@H]3O[C@H](OC[C@H]4O[C@H](OS(=O)(=O)O)[C@H](OS(=O)(=O)O)[C@@H](OS(=O)(=O)O)[C@@H]4OS(=O)(=O)O)[C@H](OS(=O)(=O)O)[C@@H](OS(=O)(=O)O)[C@H]3OS(=O)(=O)O)[C@H](OS(=O)(=O)O)[C@@H](OS(=O)(=O)O)[C@@H]2OS(=O)(=O)O)[C@H](OS(=O)(=O)O)[C@@H](OS(=O)(=O)O)[C@H]1OS(=O)(=O)O [drawing 8, O-α-D-galactopyranosyl(1→6)-O-β-D-glucopyranosyl(1→6)-O-α-D-galactopyranosyl(1→6)-α-D-glucopyranose [gal 1α,6 glc 1β,6 gal 1α,6 glc] tetradecakis (H-sulfate), tetradecasalt with trimethylamine]	+9 Wells	–	–	–	+1 Wells	+5 Wells
O=S(=O)(O)OC[C@H]1O[C@@H](OC[C@H]2O[C@H](OC[C@H]3OC(OS(=O)(=O)O)[C@H](OS(=O)(=O)O)[C@@H](OS(=O)(=O)O)[C@@H]3OS(=O)(=O)O)[C@H](OS(=O)(=O)O)[C@@H](OS(=O)(=O)O)[C@H]2OS(=O)(=O)O)[C@H](OS(=O)(=O)O)[C@@H](OS(=O)(=O)O)[C@@H]1O[C@H]1O[C@H](COS(=O)(=O)O)[C@@H](OS(=O)(=O)O)[C@H](OS(=O)(=O)O)[C@H]1OS(=O)(=O)O (stereo partly drawn) [drawing 10, O-α-D-glucopyranosyl(1→4)-O-β-D-glucopyranosyl(1→6)-O-α-D-galactopyranosyl(1→6)-D-glucopyranose [glc 1α,4 glc 1β,6 gal 1α,6 glc] tetradecakis (H-sulfate), tetradecasalt with trimethylamine]	+9 Wells	–	–	–	+1 Wells	+5 Wells
O=S(=O)(O)OC[C@H]1O[C@@H](OC[C@H]2O[C@H](OC[C@H]3O[C@H](OS(=O)(=O)O)[C@H](OS(=O)(=O)O)[C@@H](OS(=O)(=O)O)[C@@H]3OS(=O)(=O)O)[C@H](OS(=O)(=O)O)[C@@H](OS(=O)(=O)O)[C@H]2OS(=O)(=O)O)[C@H](OS(=O)(=O)O)[C@@H](OS(=O)(=O)O)[C@@H]1O[C@@H]1O[C@H](COS(=O)(=O)O)[C@@H](OS(=O)(=O)O)[C@H](OS(=O)(=O)O)[C@H]1OS(=O)(=O)O [drawing 12, O-β-D-glucopyranosyl(1→4)-O-β-D-glucopyranosyl(1→6)-O-α-D-galactopyrranosyl(1→6)-α-D-glucopyranose [glc 1β,4 glc 1β,6 gal 1α,6 glc] tetradecakis (H-sulfate), tetradecasalt with trimethylamine]	+9 Wells	–	–	–	–	+4 Wells
O=S(=O)(O)OC[C@H]1O[C@@H](OC[C@H]2O[C@H](OC[C@H]3O[C@H](OS(=O)(=O)O)[C@H](OS(=O)(=O)O)[C@@H](OS(=O)(=O)O)[C@@H]3OS(=O)(=O)O)[C@H](OS(=O)(=O)O)[C@@H](OS(=O)(=O)O)[C@H]2OS(=O)(=O)O)[C@H](OS(=O)(=O)O)[C@@H](OS(=O)(=O)O)[C@@H]1O[C@@H]1O[C@H](COS(=O)(=O)O)[C@@H](OS(=O)(=O)O)[C@H](OS(=O)(=O)O)[C@H]1OS(=O)(=O)O [drawing 13, O-β-D-glucopyranosyl(1→4)-O-β-D-glucopyranosyl(1→6)-O-α-D-galactopyranosyl(1→6)-α-D-glucopyranose [glc 1β,4 glc 1β,6 gal 1α,6 glc] tetradecakis (H-sulfate), tetradecasodium salt]	+9 Wells	-25	-34	-60	–	–
O=S(=O)(O)OC[C@H]1O[C@@H](OC[C@H]2O[C@H](OC[C@H]3O[C@H](OS(=O)(=O)O)[C@H](OS(=O)(=O)O)[C@@H](OS(=O)(=O)O)[C@@H]3OS(=O)(=O)O)[C@H](OS(=O)(=O)O)[C@@H](OS(=O)(=O)O)[C@H]2OS(=O)(=O)O)[C@H](OS(=O)(=O)O)[C@@H](OS(=O)(=O)O)[C@@H]1O[C@H]1O[C@H](COS(=O)(=O)O)[C@@H](O[C@H]2O[C@H](COS(=O)(=O)O)[C@@H](OS(=O)(=O)O)[C@H](OS(=O)(=O)O)[C@H]2OS(=O)(=O)O)[C@H](OS(=O)(=O)O)[C@H]1OS(=O)(=O)O [drawing 14, O-α-D-glucopyranosyl(1→4)-O-α-D-glucopyranosyl(1→4)-O-β-D-glucopyranosyl(1→6)-O-α-D-galactopyranosyl(1→6)-α-D-glucopyranose [(glc 1α,4)2 glc 1β,6 gal 1α,6 glc] heptadecakis(H-sulfate), heptadecasalt with trimethylamine]	+9 Wells	–	–	–	+1 Wells	–
O=S(=O)(O)OC[C@H]1O[C@@H](OC[C@H]2O[C@H](OC[C@H]3O[C@H](OS(=O)(=O)O)[C@H](OS(=O)(=O)O)[C@@H](OS(=O)(=O)O)[C@@H]3OS(=O)(=O)O)[C@H](OS(=O)(=O)O)[C@@H](OS(=O)(=O)O)[C@H]2OS(=O)(=O)O)[C@H](OS(=O)(=O)O)[C@@H](OS(=O)(=O)O)[C@@H]1O[C@H]1O[C@H](COS(=O)(=O)O)[C@@H](O[C@H]2O[C@H](COS(=O)(=O)O)[C@@H](OS(=O)(=O)O)[C@H](OS(=O)(=O)O)[C@H]2OS(=O)(=O)O)[C@H](OS(=O)(=O)O)[C@H]1OS(=O)(=O)O [drawing 15, O-α-D-glucopyranosyl(1→4)-O-α-D-glucopyranosyl(1→4)-O-β-D-glucopyranosyl(1→6)-O-α-D-galactopyranosyl(1→6)-α-D-glucopyranose [(glc 1α,4)2 glc 1β,6 gal 1α,6 glc] heptadecakis(H-sulfate), heptadecasodium salt]	+9 Wells	–	–	–	+2 Wells	+6 Wells
O=S(=O)(O)OC[C@H]1O[C@@H](OC[C@H]2O[C@H](OC[C@H]3OC(OS(=O)(=O)O)[C@H](OS(=O)(=O)O)[C@@H](OS(=O)(=O)O)[C@@H]3OS(=O)(=O)O)[C@H](OS(=O)(=O)O)[C@@H](OS(=O)(=O)O)[C@H]2OS(=O)(=O)O)[C@H](OS(=O)(=O)O)[C@@H](OS(=O)(=O)O)[C@@H]1O[C@H]1O[C@H](COS(=O)(=O)O)[C@@H](O[C@H]2O[C@H](COS(=O)(=O)O)[C@@H](O[C@H]3O[C@H](COS(=O)(=O)O)[C@@H](O[C@H]4O[C@H](COS(=O)(=O)O)[C@@H](O[C@H]5O[C@H](COS(=O)(=O)O)[C@@H](O[C@H]6O[C@H](COS(=O)(=O)O)[C@@H](OS(=O)(=O)O)[C@H](OS(=O)(=O)O)[C@H]6OS(=O)(=O)O)[C@H](OS(=O)(=O)O)[C@H]5OS(=O)(=O)O)[C@H](OS(=O)(=O)O)[C@H]4OS(=O)(=O)O)[C@H](OS(=O)(=O)O)[C@H]3OS(=O)(=O)O)[C@H](OS(=O)(=O)O)[C@H]2OS(=O)(=O)O)[C@H](OS(=O)(=O)O)[C@H]1OS(=O)(=O)O (stereo partly drawn) [drawing 16, O-α-D-glucopyranosyl(1→4)-O-α-D-glucopyranosyl(1→4)-O-α-D-glucopyranosyl(1→4)-O-α-D-glucopyranosyl(1→4)-O-α-D-glucopyranosyl(1→4)-O-α-D-glucopyranosyl(1→4)-O-β-D-glucopyranosyl(1→6)-O-α-D-galactopyranosyl(1→6)-D-glucopyranose [(glc 1α,4)6 glc 1β,6 gal 1α,6 glc] nonacosakis (H-sulfate), non-acosasalt with trimethylamine]	+10 Wells	–	–	–	+1 Wells	+5 Wells

— patent publication US4221907A, “Substituted O-α-D and O-β-D-multi-galactopyranosyl and glucopyranosyl 1→4 and 1→6 galactopyranosyl 1→6 α-D-glucopyranoses” (American Cyanamid Company, priority 1979, dated 1980)
